Test results: PubChem BioAssay (NCI)
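Step 1: Grow cells in 96-well plates. Step 2: Expose to compound for 48 hours at 5 concentrations. Step 3: Interpolate endpoints linearly; if unreached, use highest concentration. Here, GI50 denotes the concentration required for 50% inhibition of growth. At the TGI there is no net growth.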

What was measured:
Experiment in all cases: DTP human tumour cell line panel, 48 h
[1] = test system: COLO 205 colon
[2] = test system: HCC-2998 colon
[3] = test system: LOX IMVI melanoma
[4] = test system: OVCAR-5 ovarian
[5] = test system: OVCAR-8 ovarian
[6] = test system: RPMI-8226 leukemia
[7] = test system: SK-MEL-28 melanoma
[8] = test system: SK-OV-3 ovarian
[9] = test system: SNB-19 CNS
[10] = test system: SNB-75 CNS

SMILES	TGI [1]	TGI [2]	TGI [3]	TGI [4]	TGI [5]	TGI [6]	TGI [7]	TGI [8]	TGI [9]	TGI [10]	GI50 [1]	GI50 [2]	GI50 [3]	GI50 [4]	GI50 [5]	GI50 [6]	GI50 [7]	GI50 [8]	GI50 [9]	GI50 [10]
C=C(C)[C@@H]1CC[C@]2(C)CC[C@]3(C)[C@H](CC[C@@H]4[C@@]5(C)CC[C@H](OC(=O)c6ccccc6)C(C)(C)[C@@H]5CC[C@]43C)[C@@H]12	> 100 µM	> 100 µM	> 100 µM	> 100 µM	> 100 µM	> 100 µM	> 100 µM	> 100 µM	> 100 µM	> 100 µM	–	–	–	–	–	–	–	–	–	–
CC1SC(c2ccccc2)N(Nc2c3ccccc3nc3ccccc23)C1=O (stereo unspecified)	> 100 µM	> 100 µM	> 100 µM	> 100 µM	> 100 µM	> 100 µM	> 100 µM	> 100 µM	> 100 µM	> 100 µM	–	–	–	–	–	–	–	–	–	–
COc1ccc(-c2cc(-c3ccccc3)n(C3OCC(OC(C)=O)C(OC(C)=O)C3OC(C)=O)c(=S)c2C#N)cc1 (stereo unspecified)	> 100 µM	> 100 µM	> 100 µM	> 100 µM	> 100 µM	> 100 µM	> 100 µM	> 100 µM	> 100 µM	> 100 µM	–	–	–	–	–	–	–	–	–	–
COc1ccc(NS(=O)c2ccc(-c3ccccc3)cc2)cc1 (stereo unspecified)	> 100 µM	> 100 µM	> 100 µM	> 100 µM	> 100 µM	> 100 µM	> 100 µM	–	> 100 µM	62.5 µM	–	–	–	–	–	–	–	–	–	–
CN1CCN(c2ccc(-c3ccc4ncc(C#N)c(Nc5ccc(F)c(Cl)c5)c4c3)cc2)CC1	4.99 µM	15.8 µM	11.5 µM	25.5 µM	14.5 µM	5.5 µM	3.66 µM	15.1 µM	19.2 µM	15.9 µM	1.92 µM	3.26 µM	2.78 µM	4.74 µM	2.74 µM	1.92 µM	1.79 µM	2.9 µM	3.36 µM	2.33 µM
O=C(N/C(=C\c1ccccc1[N+](=O)[O-])c1nc2ccccc2[nH]1)c1ccccc1	> 100 µM	> 100 µM	–	> 100 µM	> 100 µM	–	> 100 µM	> 100 µM	> 100 µM	–	–	–	–	–	–	–	–	–	–	–
Nc1ccc2c(c1)C1=NNC(=O)CC1C2 (stereo unspecified)	> 100 µM	> 100 µM	> 100 µM	> 100 µM	> 100 µM	> 100 µM	> 100 µM	> 100 µM	> 100 µM	> 100 µM	–	–	–	–	–	–	–	–	–	–
